Experimental data reported in patent US20250326708A1, “LONG-ACTING SPLEEN-TARGETING CATIONIC LIPID COMPOUND COMPRISING BENZENE RING STRUCTURE, COMPOSITION COMPRISING SAME, AND USE THEREOF” (Beijing Youcarekechuang Pharmaceutical Technology Co., Ltd., priority 2024, published 2025).

Columns and labels:
[1] = system: 293T cells; assay: Fluorescence detection of Fluc-mRNA (transfection efficiency) of LNP preparations; assay type: cell-based; conditions: LNP with 0.3 μg Fluc-mRNA, 96-well plate, 24 hours
Procedure: (§1) Cell recovery and passage: 293T cells were recovered and cultured in culture dishes. The cells were passaged until the required number of cells was obtained.
(§2) Seeding plates: The cells in culture dishes were digested and counted, then seeded in a 96-well plate at 10,000 cells per well and seeded in a 12-well plate at 150,000 cells per well. The cells were cultured overnight until cell adhesion.
(§3) The cationic lipids listed in Table 2 were each mixed with DSPC (AVT (Shanghai) Pharmaceutical Technology Co., Ltd.), cholesterol (AVT (Shanghai) Pharmaceutical Technology Co., Ltd.), and DMG-PEG2000 in a molar ratio of 49:10:39.5:1.5 and dissolved in ethanol to prepare ethanol lipid solutions. Using the ethanol injection method, the ethanol lipid solutions were quickly added to a citrate buffer (pH between 4 and 5), and vortexed for 30 seconds for later use. eGFP-mRNA (purchased from Shanghai BioHub Biotechnology Co., Ltd.), Fluc-mRNA (purchased from Shanghai BioHub Biotechnology Co., Ltd.), or Cy5 fluorescently labeled Leqvio (purchased from Sangon Biotech (Shanghai) Co., Ltd.) was diluted in a citrate buffer (pH between 4 and 5) to obtain an mRNA aqueous solution. A certain volume of the lipid solution and the mRNA aqueous solution were mixed to prepare liposomes at a total lipid-to-mRNA weight ratio of 15:1. The mixtures were sonicated at 25° C. for 15 minutes (ultrasonic frequency: 40 kHz, ultrasonic power: 800 W). The resulting liposomes were diluted 10-fold with PBS, followed by ultrafiltration using a 300 kDa ultrafiltration tube to remove ethanol. After adjusting the volume with PBS, LNP preparations encapsulating eGFP-mRNA or Fluc-mRNA were obtained, using cationic lipids, DSPC, cholesterol, and DMG-PEG2000 at a molar ratio of 49:10:39.5:1.5.
(§4) Cell recovery and passage: The method was the same as described in Example 3.
(§5) Seeding plates: The method was the same as described in Example 3.
LNP preparations containing 0.3 μg of Fluc-mRNA (with the vector components of the LNP preparations of cationic lipids, DSPC, cholesterol, and DMG-PEG2000 in a molar ratio of 49:10:39.5:1.5, where the cationic lipids are those listed in Table 1) were added to the cell culture medium in a 96-well plate. After 24 hours of continued culture, the corresponding reagents were added according to the instructions in the Gaussia Luciferase Assay Kit. Fluorescence intensity in each well was detected using the IVIS fluorescence detection system. The transfection efficiency of LNP preparations prepared with a series of cationic lipid compounds designed in the present disclosure, as well as cationic lipids from the prior art, including SM-102, HHMA, MC3, compound 7, and I-1, is shown in Table 4.

[2] = system: female BALB/C mice; assay: Expression of delivered mRNA in mice in vivo (IVIS in vivo imaging); conditions: 10 μg Fluc-mRNA via tail vein
Procedure: LNP preparations containing 10 μg of Fluc-mRNA were injected via the tail vein into female BALB/C mice (4 to 6 weeks old, weighing 17 to 19 g). At specified time points after administration (6 h, 24 h, 48 h, and 7 d), the mice were intraperitoneally injected with fluorescent imaging substrates and allowed to move freely for 5 minutes. The average radiation intensity (corresponding to fluorescence intensity) of proteins expressed by the mRNA delivered by the LNP preparations in the mice in vivo was then detected using the IVIS Spectrum small-animal in vivo imaging system.

[3] = Particle size and polydispersity index (PDI) of lipid nanoparticles, dynamic light scattering; assay type: physicochemical; conditions: LNP preparation with the named cationic lipid; 90° scattering angle, 25° C
Text: as §3
The particle size and polydispersity index (PDI) were measured using dynamic light scattering with a Malvern laser diffraction particle size analyzer.
10 μL of liposome solution was diluted to 1 mL with RNase-free deionized water and added to the sample cell. Each sample was measured three times. The measurement conditions were as follows: 90° scattering angle, 25° C.

[4] = system: 293T cells; assay: Cell viability assay (CCK-8) with LNP preparations of Fluc-mRNA; assay type: cell-based; conditions: LNP with 1.5 μg Fluc-mRNA, 24 hours, CCK-8
Procedure: as §1, §2, §3, §4, §5
LNP preparations containing 1.5 μg of Fluc-mRNA (with the vector components of the LNP preparations of cationic lipids, DSPC, cholesterol, and DMG-PEG2000 in a molar ratio of 49:10:39.5:1.5, where the cationic lipids are those listed in Table 1) were added to the cell culture medium in a 96-well plate. After 24 hours of continued culture, 10 μL of CCK-8 solution was added to each well, and the culture plate was incubated in an incubator for 1 hour.

[5] = system: female BALB/C mice; assay: Expression of delivered mRNA in different organs of mice (organ imaging); assay type: in vivo; conditions: for Average radiation intensity of mouse organs: Heart / Average radiation intensity of mouse organs: Kidney / Average radiation intensity of mouse organs: Liver / Average radiation intensity of mouse organs: Lung / Average radiation intensity of mouse organs: Lymph / Average radiation intensity of mouse organs: Spleen: 6 hours after 5 μg Fluc-mRNA subcutaneously
Procedure: LNP preparations containing 5 μg of Fluc-mRNA were subcutaneously injected into female BALB/C mice (4 to 6 weeks old, weighing 17 to 19 g). At specified time points after administration (6 h), the mice were intraperitoneally injected with fluorescent imaging substrates and allowed to move freely for 5 minutes. The average radiation intensity (corresponding to fluorescence intensity) of proteins expressed by the mRNA delivered by the LNP preparations in the mice in vivo was then detected using the IVIS Spectrum small-animal in vivo imaging system. After sampling, the mice were killed by cervical dislocation and dissected, and the internal organs: heart, liver, spleen, lung, kidney, and lymph of mice were accurately isolated. The average radiation intensity (corresponding to fluorescence intensity) of proteins expressed by the mRNA delivered by the LNP preparations in various organs of mice was then detected using the IVIS Spectrum small-animal in vivo imaging system.

Row | Structure (SMILES) | Relative light unit (RLU) [1] | Average radiation intensity, in vivo imaging ([2]; 6 h) | Average radiation intensity, in vivo imaging ([2]; 24 h) | Average radiation intensity, in vivo imaging ([2]; 48 h) | Average radiation intensity, in vivo imaging ([2]; 7 d) | PDI [3] | Particle size [3] | Cell viability [4] | Average radiation intensity of mouse organs: Heart [5] | Average radiation intensity of mouse organs: Kidney [5] | Average radiation intensity of mouse organs: Liver [5] | Average radiation intensity of mouse organs: Lung [5] | Average radiation intensity of mouse organs: Lymph [5] | Average radiation intensity of mouse organs: Spleen [5] | Expression level in the liver, times that of YK-908 ([5]; liver, 6 h, vs YK-908) | Expression level in the liver, times that of YK-909 ([5]; liver, 6 h, vs YK-909) | Expression level in the liver, times that of YK-910 ([5]; liver, 6 h, vs YK-910)
1 | CCCCCCCCC(CCCCCC)COC(=O)CCCCCN(CCCCCC(=O)OCC(CCCCCC)CCCCCCCC)CCN(CCO)c1ccccc1 (stereo not drawn) [Compound 7, bis(2-hexyldecyl) 6,6′-((2-((2-hydroxyethyl) (phenyl)amino)ethyl)azanediyl)dihexanoate, reference compound] | 257490 RLU | 1847654 | 185473 | 96543 | 8511 | 14.3% | 162 nm | 73% | – | – | – | – | – | – | – | – | –
2 | CCCCCCCCCCCOC(=O)CCCCCN(CCO)CCCCCCCC(=O)OC(CCCCCCCC)CCCCCCCC [SM-102, reference compound] | 1428141 RLU | 2144435 | 314533 | 134554 | 9243 | 13.5% | 145 nm | 82% | 0 | 0 | 24365 | 0 | 0 | 25547 | 17.12 times | 2.67 times | 2.13 times
3 | CCCCCCCCCCOC(=O)CCCN1CCN(CCCCCC(=O)OCC(CCCCCCC)CCCCCCCC)CC1 (stereo not drawn) [YK-501, reference compound] | 46243 RLU | 346241 | 174776 | 55543 | 5634 | 13.3% | 144 nm | 63% | 0 | 0 | 3334 | 0 | 0 | 14224 | – | – | –
4 | CCCCCCCCCCCCSSCCNC(=O)CCN1CCN(CCCCCC(=O)OCCC(CCCCCC)CCCCCC)CC1 [YK-506, reference compound] | 654224 RLU | 1801233 | 257765 | 82221 | 34234 | 12.2% | 141 nm | 90% | 0 | 0 | 18913 | 0 | 0 | 71213 | – | – | –
5 | CCCCCCCCCCCOC(=O)CCCCCCNC(CO)(CO)CCc1ccc(CCCCCCCC)cc1 [YK-904, undecyl 7-((1-hydroxy-2-(hydroxymethyl)-4-(4-octylphenyl)butan-2-yl)amino) heptanoate] | 125048 RLU | 1116384 | 115355 | 28552 | 3243 | 8.2% | 112 nm | 52% | – | – | – | – | – | – | – | – | –
6 | CCCCCCCCCCCCCCNC(=O)CCCCCNC(CO)(CO)CCc1ccc(CCCCCCCC)cc1 [YK-907, 6-((1-hydroxy-2-(hydroxymethyl)-4-(4-octylphenyl)butan-2-yl)amino)-N-tetradecylhexanamide] | 37699 RLU | – | – | – | – | 16.2% | 159 nm | 73% | – | – | – | – | – | – | – | – | –
7 | CCCCCCCCc1ccc(CCC(CO)(CO)NCCCCCCC(=O)OCC(CCCCCCCC)CCCCCCCC)cc1 [YK-911, 2-octyldecyl 7-((1-hydroxy-2-(hydroxymethyl)-4-(4-octylphenyl)butan-2-yl)amino) heptanoate] | 1299055 RLU | – | – | – | – | 10.4% | 136 nm | 62% | – | – | – | – | – | – | – | – | –
